From article PMC11242173 (International Journal of Molecular Sciences, 2024) come the findings set out here.

In brackets after ≈: the same amount, converted by molar mass. Some results are limits rather than exact numbers.

For one data set, the system named is HCT-8 cells. In words: Cytotoxicity (cell viability) assay in HCT-8 cells. The format is cell-based, human. To be noted: uninfected HCT-8 cells, 72 h.
Another data set concerns hCoV-OC43. The experiment in a line: Focus forming reduction assay (FFRA), hCoV-OC43 in HCT-8 cells. To be noted: for EC50 / EC90: hCoV-OC43, FFRA in HCT-8 cells, treatment before, during and after infection, 72 h p.i.; for SI (ratio of CC50 to EC50): hCoV-OC43, HCT-8 cells.

In turn, `Oc1cc(O)c2c(c1)OC1(c3ccc(O)c(O)c3)Oc3cc(O)c4c(c3C2C1O)OC(c1ccc(O)c(O)c1)C(O)C4` (centres unmarked) [PAC A1, PAC-A1] had a CC50 with HCT-8 cells greater than 400 µg/mL. Further, in the data set with hCoV-OC43, the EC50 was 4.10 ± 0.71 µg/mL (≈ 7.11 µM), the EC90 stood at 139.35 ± 2.06 µg/mL (≈ 242 µM) and the “SI (ratio of CC50 to EC50)” value was greater than 97.56.
For `Oc1cc(O)c2c(c1)O[C@H](c1ccc(O)c(O)c1)[C@@H](O)[C@@H]2c1c(O)cc(O)c2c1O[C@H](c1ccc(O)c(O)c1)[C@@H](O)C2` [PAC B3, PAC-B3] the same measures were greater than 400 µg/mL, 134.92 ± 4.14 µg/mL (≈ 233 µM), greater than 400 µg/mL and greater than 2.96.
For `Oc1cc(O)c2c(c1)O[C@H](c1ccc(O)c(O)c1)[C@H](O)[C@H]2c1c(O)cc(O)c2c1O[C@H](c1ccc(O)c(O)c1)[C@@H](O)C2` [PAC B1, PAC-B1] the same measures were greater than 400 µg/mL, 167.02 ± 6.51 µg/mL (≈ 289 µM), greater than 400 µg/mL and greater than 2.39.
`Oc1cc(O)c2c(c1)O[C@H](c1ccc(O)c(O)c1)[C@H](O)[C@H]2c1c(O)cc(O)c2c1O[C@H](c1ccc(O)c(O)c1)[C@H](O)C2` [PAC B2, PAC-B2] had a 50% cytotoxic concentration (CC50) with HCT-8 cells greater than 400 µg/mL. Moreover, in the data set on hCoV-OC43, the EC50 was 142.41 ± 8.93 µg/mL (≈ 246 µM), the EC90 is greater than 400 µg/mL and the “SI (ratio of CC50 to EC50)” value is greater than 2.81.
For the molecule `Oc1cc(O)c2c(c1)O[C@@]1(c3ccc(O)c(O)c3)Oc3cc(O)c4c(c3[C@@H]2[C@H]1O)O[C@H](c1ccc(O)c(O)c1)[C@H](O)C4` [PAC A2, PAC-A2], the half-maximal cytotoxic concentration (CC50) in the data set on HCT-8 cells was greater than 400 µg/mL. In addition, in the data set on hCoV-OC43, the EC50 is 6.58 ± 0.40 µg/mL (≈ 11.4 µM), the EC90 was determined as 100.74 ± 0.66 µg/mL (≈ 175 µM) and the “SI (ratio of CC50 to EC50)” value was greater than 60.79.
